Test system: HCV replicon cells
Assay: Cell-based HCV replicon assay (replicon RNA level by real time PCR, Taqman)
Settings: Hepatitis C virus, 72 h, HCV replicon cells, replicon RNA level by real time PCR (Taqman), harvested on day 3; calculated EC90 reported as range class; read-out: EC90 (μM) range
Method in brief: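 Readout: ΔCT between NS5B replicon RNA and GAPDH by real-time RT-PCR in lysates harvested on day 3, fitted sigmoidally; EC50 at ΔCT=1, EC90 at ΔCT=3.2. Compounds tested at ten 2-fold dilutions from 25 μM to 1 μM start, 10% FBS, 0.5% DMSO.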

| Structure (SMILES) | EC90 |
| --- | --- |
| COCc1cc2cc(-c3c(C)nc(NCc4ccco4)nc3N[C@@H]3C[C@H](CO)[C@H]4OC(C)(C)O[C@H]43)oc2cn1 [Example 1107] | 0.5 to 5 µM |
| COCc1cc2cc(-c3c(C)nc(NCc4ccco4)nc3N[C@@H]3C[C@H](CO)[C@@H](O)[C@H]3O)oc2cn1 [Example 1108] | < 0.5 µM |
| Cc1nc(NCc2ccco2)nc(N[C@@H]2C[C@H](CO)[C@H]3OC(C)(C)O[C@H]32)c1-c1nc2ccccc2s1 [Example 1109] | 0.5 to 5 µM |
| Cc1nc(NCc2ccco2)nc(N[C@@H]2C[C@H](CO)[C@@H](O)[C@H]2O)c1-c1nc2ccccc2s1 [Example 1110] | < 0.5 µM |
| Cc1nc(NCc2cccc(N)c2)nc(N[C@@H]2C[C@H](CO)[C@H]3OC(C)(C)O[C@H]32)c1-c1nc2ccccc2s1 [Example 1111] | 0.5 to 5 µM |
| Cc1nc(NCc2cccc(N)c2)nc(N[C@@H]2C[C@H](CO)[C@@H](O)[C@H]2O)c1-c1nc2ccccc2s1 [Example 1112] | 0.5 to 5 µM |
| Cc1nc(NCc2cc(Cl)cc(Cl)c2)nc(N[C@@H]2C[C@H](CO)[C@H]3OC(C)(C)O[C@H]32)c1-c1nc2ccccc2s1 [Example 1113] | 0.5 to 5 µM |
| Cc1nc(NCc2cc(Cl)cc(Cl)c2)nc(N[C@@H]2C[C@H](CO)[C@@H](O)[C@H]2O)c1-c1nc2ccccc2s1 [Example 1114] | 0.5 to 5 µM |
| Cc1nc(N(C)Cc2ccccc2)nc(N[C@@H]2C[C@H](CO)[C@H]3OC(C)(C)O[C@H]32)c1-c1nc2ccccc2s1 [Example 1115] | > 5 µM |
| Cc1nc(N(C)Cc2ccccc2)nc(N[C@@H]2C[C@H](CO)[C@@H](O)[C@H]2O)c1-c1nc2ccccc2s1 [Example 1116] | > 5 µM |
| CCCCCCNc1nc(C)c(-c2nc3ccccc3s2)c(N[C@@H]2C[C@H](CO)[C@H]3OC(C)(C)O[C@H]32)n1 [Example 1117] | > 5 µM |
| Cc1nc(NCc2cccc(CN(C)C)c2)nc(N[C@@H]2C[C@H](CO)[C@H]3OC(C)(C)O[C@H]32)c1-c1nc2ccccc2s1 [Example 1118] | > 5 µM |
| Cc1nc(NCc2cccc(CN(C)C)c2)nc(N[C@@H]2C[C@H](CO)[C@@H](O)[C@H]2O)c1-c1nc2ccccc2s1 [Example 1119] | 0.5 to 5 µM |
| CC(C)(C)CNc1nc(CF)c(-c2nc3ccccc3s2)c(N[C@@H]2C[C@H](CO)[C@@H](O)[C@H]2O)n1 [Example 1120] | > 5 µM |
| COc1cc(CNc2nc(CF)c(-c3nc4ccccc4s3)c(N[C@@H]3C[C@H](CO)[C@@H](O)[C@H]3O)n2)cc(OC)c1 [Example 1121] | 0.5 to 5 µM |
| COc1cccc(Nc2nc(C)c(-c3nc4ccccc4s3)c(N[C@@H]3C[C@H](CO)[C@@H](O)[C@H]3O)n2)c1 [Example 1122] | 0.5 to 5 µM |
| COc1ccccc1Nc1nc(C)c(-c2nc3ccccc3s2)c(N[C@@H]2C[C@H](CO)[C@@H](O)[C@H]2O)n1 [Example 1123] | 0.5 to 5 µM |
| Cc1nc(Nc2ccccc2OCc2ccccc2)nc(N[C@@H]2C[C@H](CO)[C@H]3OC(C)(C)O[C@H]32)c1-c1nc2ccccc2s1 [Example 1124] | > 5 µM |
| COc1cccc(OC)c1Nc1nc(C)c(-c2nc3ccccc3s2)c(N[C@@H]2C[C@H](CO)[C@@H](O)[C@H]2O)n1 [Example 1125] | > 5 µM |
| COc1cc2cc(-c3c(C)nc(NCC4CC4)nc3N[C@@H]3C[C@H](CO)[C@H]4OC(C)(C)O[C@H]43)oc2c(OC)n1 [Example 1126] | 0.5 to 5 µM |
| COc1cc2cc(-c3c(C)nc(NCC4CC4)nc3N[C@@H]3C[C@H](CO)[C@@H](O)[C@H]3O)oc2c(OC)n1 [Example 1127] | < 0.5 µM |

| Structure (SMILES) | EC90 |
| --- | --- |
| COc1cccc(Nc2nc(C)c(-c3nc4ccccc4s3)c(N[C@@H]3C[C@H](CO)[C@H]4OC(C)(C)O[C@H]43)n2)c1OC [Example 1128] | > 5 µM |
| COc1cccc(Nc2nc(C)c(-c3nc4ccccc4s3)c(N[C@@H]3C[C@H](CO)[C@@H](O)[C@H]3O)n2)c1OC [Example 1129] | > 5 µM |
| COc1cnccc1Nc1nc(C)c(-c2nc3ccccc3s2)c(N[C@@H]2C[C@H](CO)[C@H]3OC(C)(C)O[C@H]32)n1 [Example 1130] | > 5 µM |
| COc1cnccc1Nc1nc(C)c(-c2nc3ccccc3s2)c(N[C@@H]2C[C@H](CO)[C@@H](O)[C@H]2O)n1 [Example 1131] | > 5 µM |
| Cc1nc(NCC2CC2)nc(O[C@@H]2C[C@H](CO)[C@@H](O)[C@H]2O)c1-c1nc2ccccc2s1 [Example 1132] | > 5 µM |
| Cc1nc(NCC(F)(F)F)nc(N[C@@H]2C[C@H](COC(=O)[C@@H](N)C(C)C)[C@@H](O)[C@H]2O)c1-c1nc2ccccc2s1 [Example 1133] | 0.5 to 5 µM |
| Cc1cc2sc(-c3c(C)nc(NCC4CC4)nc3N[C@@H]3C[C@H](CO)[C@@H](O)[C@H]3O)nc2c(C)n1 [Example 1134] | < 0.5 µM |
| Cc1cc2sc(-c3c(C)nc(NCC(F)(F)F)nc3N[C@@H]3C[C@H](CO)[C@@H](O)[C@H]3O)nc2c(C)n1 [Example 1135] | < 0.5 µM |
| Cc1nc(NCC2CC2)nc(N[C@@H]2C[C@H](CO)[C@@H](S(C)(=O)=O)[C@H]2O)c1-c1nc2ccccc2s1 [Example 1136] | 0.5 to 5 µM |
| Cc1cc2sc(-c3c(C)nc(N[C@@H](C)c4ccc(OC(F)(F)F)cc4)nc3N[C@@H]3C[C@H](CO)[C@@H](O)[C@H]3O)nc2c(C)n1 [Example 1137] | < 0.5 µM |
| COc1cc2cc(-c3c(C)nc(NCC(C)(C)C)nc3N[C@@H]3C[C@H](CO)[C@@H](O)[C@H]3O)oc2c(C)n1 [Example 1201] | 0.5 to 5 µM |
| Cc1nc(NC(C)c2ccccn2)nc(N[C@@H]2C[C@H](CO)[C@@H](O)[C@H]2O)c1-c1nc2ccccc2s1 (stereo partly shown) [Example 1202] | 0.5 to 5 µM |
| Cc1nc(NCc2ccc3c(c2)OCO3)nc(N[C@@H]2C[C@H](CO)[C@@H](O)[C@H]2O)c1-c1nc2ccccc2s1 [Example 1203] | 0.5 to 5 µM |
| Cc1cnc(CNc2nc(C)c(-c3nc4ccccc4s3)c(N[C@@H]3C[C@H](CO)[C@@H](O)[C@H]3O)n2)s1 [Example 1204] | < 0.5 µM |
| COc1ccc(CNc2nc(C)c(-c3nc4ccccc4s3)c(N[C@@H]3CC[C@@H](O)[C@H]3O)n2)cc1OC [Example 1205] | 0.5 to 5 µM |
| COc1cc(CNc2nc(C)c(-c3nc4ccccc4s3)c(N[C@@H]3CC[C@@H](O)[C@H]3O)n2)cc(OC)c1 [Example 1206] | 0.5 to 5 µM |
| COc1ccccc1CNc1nc(C)c(-c2nc3ccccc3s2)c(N[C@@H]2C[C@H](CO)[C@@H](O)[C@H]2O)n1 [Example 1207] | 0.5 to 5 µM |
| Cc1cccc(CNc2nc(C)c(-c3nc4ccccc4s3)c(N[C@@H]3C[C@H](CO)[C@@H](O)[C@H]3O)n2)n1 [Example 1208] | 0.5 to 5 µM |
| COc1cc(OC)cc(C(C)Nc2nc(C)c(-c3nc4ccccc4s3)c(N[C@@H]3C[C@H](CO)[C@@H](O)[C@H]3O)n2)c1 (stereo partly shown) [Example 1209] | 0.5 to 5 µM |
| COc1cc(COc2nc(C)c(-c3nc4ccccc4s3)c(N[C@@H]3C[C@H](CO)[C@@H](O)[C@H]3O)n2)cc(OC)c1 [Example 1210] | > 5 µM |
| COc1cc(OC)cc(Oc2nc(C)c(-c3nc4ccccc4s3)c(N[C@@H]3C[C@H](CO)[C@@H](O)[C@H]3O)n2)c1 [Example 1211] | > 5 µM |

| Structure (SMILES) | EC90 |
| --- | --- |
| Cc1nc(NCc2cccc(O)c2)nc(N[C@@H]2C[C@H](CO)[C@@H](O)[C@H]2O)c1-c1nc2ccccc2s1 [Example 1212] | < 0.5 µM |
| Cc1nc(NCC(C)(C)C)nc(N[C@@H]2CC[C@@H](O)[C@H]2O)c1-c1nc2cnccc2s1 [Example 1213] | > 5 µM |
| Cc1nc(NCc2cccs2)nc(N[C@@H]2CC[C@@H](O)[C@H]2O)c1-c1nc2cnccc2s1 [Example 1214] | < 0.5 µM |
| Cc1nc(NCc2ccco2)nc(N[C@@H]2C[C@H](CO)[C@@H](O)[C@H]2O)c1-c1nc2cnccc2s1 [Example 1215] | < 0.5 µM |
| Cc1nc(Nc2ccccc2)nc(N[C@@H]2C[C@H](CO)[C@@H](O)[C@H]2O)c1-c1nc2cnccc2s1 [Example 1216] | 0.5 to 5 µM |
| Cc1nc(N(C)c2ccccc2)nc(N[C@@H]2C[C@H](CO)[C@@H](O)[C@H]2O)c1-c1nc2cnccc2s1 [Example 1217] | > 5 µM |
| COC(=O)c1cccc(CNc2nc(C)c(-c3nc4ccccc4s3)c(N[C@@H]3C[C@H](CO)[C@@H](O)[C@H]3O)n2)c1 [Example 1218] | 0.5 to 5 µM |
| Cc1nc(NCc2cccc(C(=O)O)c2)nc(N[C@@H]2C[C@H](CO)[C@@H](O)[C@H]2O)c1-c1nc2ccccc2s1 [Example 1219] | > 5 µM |
| Cc1nc(NCc2ccccc2O)nc(N[C@@H]2C[C@H](CO)[C@@H](O)[C@H]2O)c1-c1nc2ccccc2s1 [Example 1220] | < 0.5 µM |
| COc1ccc(Nc2nc(C)c(-c3nc4ccccc4s3)c(N[C@@H]3C[C@H](CO)[C@@H](O)[C@H]3O)n2)cc1 [Example 1221] | 0.5 to 5 µM |
| Cc1nc(Nc2cc[nH]n2)nc(N[C@@H]2C[C@H](CO)[C@@H](O)[C@H]2O)c1-c1nc2ccccc2s1 [Example 1222] | > 5 µM |
| Cc1nc(NCC(C)(C)C)nc(N2CCC[C@H]2CO)c1-c1nc2ccccc2s1 [Example 1223] | > 5 µM |
| Cc1nc(NCc2cccs2)nc(N2CCC[C@H]2CO)c1-c1nc2ccccc2s1 [Example 1224] | > 5 µM |
| Cc1nc(NCc2cccc(S(C)(=O)=O)c2)nc(N[C@@H]2C[C@H](CO)[C@@H](O)[C@H]2O)c1-c1nc2ccccc2s1 [Example 1225] | 0.5 to 5 µM |
| Cc1nc(Nc2ncco2)nc(N[C@@H]2C[C@H](CO)[C@@H](O)[C@H]2O)c1-c1nc2ccccc2s1 [Example 1226] | > 5 µM |
| Cc1nc(NC(C)(C)c2ccccc2)nc(N[C@@H]2C[C@H](CO)[C@@H](O)[C@H]2O)c1-c1nc2ccccc2s1 [Example 1228] | 0.5 to 5 µM |
| Cc1nc(NC(C)(C)c2ccccc2)nc(N[C@@H]2C[C@H](CO)[C@@H](O)[C@H]2O)c1-c1nc2cnccc2s1 [Example 1229] | 0.5 to 5 µM |
| COc1cc(Nc2nc(C)c(-c3nc4ccccc4s3)c(N[C@@H]3C[C@H](CO)[C@@H](O)[C@H]3O)n2)cc(OC)c1 [Example 1230] | > 5 µM |
| Cc1nc(Nc2cccc(OCc3ccccc3)c2)nc(N[C@@H]2C[C@H](CO)[C@@H](O)[C@H]2O)c1-c1nc2ccccc2s1 [Example 1231] | 0.5 to 5 µM |

Reference: patent publication US8697694B2, “Substituted pyridine and pyrimidine derivatives and their use in treating viral infections” (priority 2008, dated 2014)
